Measurements published in US7687465B2, “Therapeutic cancer vaccine” (Kraeftens Bekaempelse, priority 2003, dated 2010).

How the values were obtained:
[1] = tested on: primary melanoma sections; experiment: In situ detection of ML-IAP-reactive CTL with multimerized HLA-A2/peptide complexes; set-up: species or system human; details: sections of primary melanoma from six patients
Source text: In situ detection of ML-IAP-reactive CTL. Confocal laser scanning microscopy was used to detect CTL reacting with a Cy3-conjugated anti-CD8 antibody (red channel) and a fluorescein isothiocyanate-conjugated multimeric HLA-A2/ML-IAP280 construct (green channel) (first and second columns) or with a fluorescein isothiocyanate conjugated multimeric HLA-A2/ML-IAP245 construct (last column) in primary tumors from two HLA-A2-positive melanoma patients.
HLA-A2 and ML-IAP245/HLA-A2-specific monomers were multimerized using dextran molecules, which were conjugated with both streptavidin and fluorescein isothiocyanate. Multimerized MHC complexes were used to stain acetone-fixed, frozen material as described previously^11,48 and antigen-specific cells were visualized using a confocal laser microscope. Sections of primary melanoma from six patients were analyzed, and ML-IAP280- and ML-IAP245-reactive CTL could readily be detected in situ in the tumor microenvironment in two of the patients (FIG. 4).

[2] = tested on: peripheral blood T cells or TIL from melanoma patients; experiment: ELISPOT IFN-γ secretion assay, T-cell responses against HLA-A2 binding ML-IAP peptides; type: cell-based, human
Description: Peripheral blood was obtained from melanoma patients before vaccination and subsequent to a series of vaccinations. In order to identify peptide-specific T-cell precursors, peripheral blood lymphocytes (PBL) were used directly in the ELISPOT (designated direct ELISPOT). However, to extend the sensitivity of the ELISPOT assay, PBL were stimulated once in vitro prior to analysis^17,18. At day 0, PBL or crushed lymph nodes were thawed and plated in 2 ml/well at a concentration of 2×10^6 cells in 24-well plates (Nunc, Denmark) in X-vivo medium (Bio Whittaker, Walkersville, Md.), 5% heat-inactivated human serum, and 2 mM of L-glutamine in the presence of 10 μM of peptide. Two days later 20 IU/ml recombinant interleukin-2 (IL-2) (Chiron, Ratingen, Germany) was added to the cultures. The cultured cells were tested for reactivity in the ELISPOT on day 8.
The ELISPOT assay used to quantify peptide epitope specific interferon-7 releasing effector cells was adapted from Lalvani et al.^37, and Scheibenbogen et al.^38. Briefly, nitrocellulose bottomed 96-well plates (MultiScreen MAIP N45, Millipore) were coated overnight at 4° C. with 7.5 μg/ml of anti-IFN-γ antibody (1-D1K, Mabtech, Sweden) in 75 μl sterile PBS. Subsequently, the wells were washed six times with PBS, and non-specific binding were blocked by X-vivo medium for 2 hours at 37° C. Freshly isolated PBL or cells, which had been stimulated once in vitro, were added in duplicates at different cell concentrations (from 10^6 to 10^5 cells per well for non-stimulated PBL, and from 3×10^5-3×10^4 cells per well for PBL which had been stimulated once in vitro), in 100 μl X-vivo medium. Peptides were then added to each well to a final concentration of 2 μM and incubated overnight at 37° C.
The following day, media was discarded and the wells were washed (six times) with PBS containing 0.05% Tween (PBS/Tw) before the addition of biotinylated secondary antibody (7-B6-1-Biotin, Mabtech) at 0.5 μg/ml in 75 μl PBS containing 1% BSA and 0.02% NaN3 (PBS/BSA). The plates were incubated at room temperature for 2 hours. The wells were washed (six times) with PBS/Tw. Then 75 μl of Avidin-enzyme conjugate (AP-Avidin, Calbiochem) diluted 1:2000 in PBS/BSA were added to each well and incubated for 1 hour. The enzyme substrate NBT/BCIP was prepared freshly according to the manufacturers' instructions (Gibco, code 18280-016) and 75 μl were added to each well and incubated for 5-10 min. The reaction was terminated by washing with tap-water upon the emergence of dark purple spots. The spots were then counted using the AlphaImager System (Alpha Innotech, San Leandro, Calif., USA) and the peptide specific CTL frequency could be calculated as the number of spot-forming cells.
To extend the sensitivity of the ELISPOT assay, PBL were stimulated once in vitro prior to analysis^17,18. At day 0, PBL or crushed lymph nodes were thawed and plated in 2 ml/well at a concentration of 2×10^6 cells in 24-well plates (Nunc, Denmark) in X-vivo medium (Bio Whittaker, Walkersville, Md.), 5% heat-inactivated human serum, and 2 mM of L-glutamine in the presence of 10 μM of peptide. Two days later 20 IU/ml recombinant interleukin-2 (IL-2) (Chiron, Ratingen, Germany) was added to the cultures. The cultured cells were tested for reactivity in the ELISPOT on day 12.
The ELISPOT assay used to quantify peptide epitope-specific interferon-γ-releasing effector cells was performed as described previously^19. Briefly, nitrocellulose bottomed 96-well plates (MultiScreen MAIP N45, Millipore, Hedehusene, Denmark) were coated with anti-IFN-7 antibody (1-D1K, Mabtech, Nacka, Sweden). The wells were washed, blocked by X-vivo medium, and cells were added in duplicates at different cell concentrations. Peptides were then added to each well and the plates were incubated overnight. The following day, media was discarded and the wells were washed prior to addition of biotinylated secondary antibody (7-B6-1-Biotin, Mabtech). […]

CC(C)C[C@H](NC(=O)[C@@H](N)CCCNC(=N)N)C(=O)N[C@@H](CCC(N)=O)C(=O)N[C@@H](CCC(=O)O)C(=O)N[C@@H](CCC(=O)O)C(=O)N[C@@H](CCCNC(=N)N)C(=O)N[C@H](C(=O)N[C@@H](CS)C(=O)N[C@@H](CCCCN)C(=O)N[C@H](C(=O)O)C(C)C)[C@@H](C)O [ML-IAP245]
patients with peptide-reactive CTL detected in situ in the tumor microenvironment [1]: two | strength of spontaneous CTL response ([2]; TIL and PBL from melanoma patients, in words): Weaker spontaneous responses | TIL samples in which a response against the peptide was detected ([2]; TIL from melanoma patients (n=22), stimulated once in vitro with peptide, number of samples): five | PBL samples in which a response against the peptide was detected ([2]; peripheral blood T cells from melanoma patients (n=7), stimulated once in vitro with peptide, number of samples): one
